This passage reports IC50 results from patent US5430062A, “Stilbene derivatives as anticancer agents” (priority 1993, dated 1995).

Structures are written as SMILES. Counter-ions that a name gives are not always drawn. Like-named read-outs stand apart in the source and are kept apart here.

For one test, the system named is tubulin. Briefly: Inhibition of tubulin polymerization (turbidimetry). The format is biochemical, bovine.
A further test concerns A-549 lung carcinoma. As to the kind of experiment: MTT cytotoxicity assay, A-549. As to conditions: Homo sapiens, A549, […].
The next test concerns MCF-7 breast carcinoma. Briefly: MTT cytotoxicity assay, MCF-7. The following applies: Homo sapiens, MCF7, […].
The next test deals with SKMEL-5 melanoma. As to the kind of experiment: MTT cytotoxicity assay, SKMEL-5. The following applies: Homo sapiens, SK-MEL-5, […], read-out: Cytotoxicity ED50, SKMEL-5. For orientation: Tetrazolium assays rely on reduction of a dye to a coloured formazan, in cell work by metabolically active cells.
Another test relates to MLM melanoma. As to the kind of experiment: MTT cytotoxicity assay, MLM. The following applies: […].
Test [1] has as its system HT-29 colon adenocarcinoma. As to the kind of experiment: MTT cytotoxicity assay, HT-29. As to conditions: Homo sapiens, HT-29, […].
Where [2] appears, read: read-out: Cytotoxicity ED50, A-549.
[3] abbreviates: read-out: Cytotoxicity ED50, MCF-7.
Where [4] appears, read: read-out: Cytotoxicity ED50, MLM.
Setting [5] is: read-out: Cytotoxicity ED50, HT-29.

On to `COc1ccc(/C=C\c2cc(OC)c(OCc3ccccc3)c(OC)c2)cc1` [15j, (Z)-1-[4-(Benzyloxy)-3,5-(dimethoxy)phenyl]-2-(4-methoxyphenyl)ethene], for which the IC50 in the test with tubulin (second series (Tables V-VII, IX), read-out: Inhibition of Tubulin Polymerization IC50 (±S.D.)) is > 40 µM.
Consider `COc1ccc(/C=C/c2cc(OC)cc(OC)c2)cc1` [16i, (E)-1-(3,5-Dimethoxyphenyl)-2-(4-methoxyphenyl)ethene], for which the IC50 was 7.5 µM with A-549 lung carcinoma (setting [2]); 9.7 µM in the test with MCF-7 breast carcinoma (setting [3]); 0.88 µM in the test on SKMEL-5 melanoma; > 25 µM in the test with MLM melanoma (setting [4]); 6.9 µM in test [1] (setting [5]).
For `COc1cc(/C=C/c2ccncc2)cc(OC)c1OC` [6i, 1-(4-Pyridyl)-2-(3,4,5-trimethoxyphenyl)ethene], in that order: > 25 µM, > 25 µM, > 25 µM, > 25 µM and > 25 µM.
For `CCc1ccc(/C=C\c2cc(OC)c(OC)c(OC)c2)cc1` [15e, (Z)-(4-Ethylphenyl)-2-(3,4,5-trimethoxyphenyl)ethene], in that order: 0.012 µM, 0.072 µM, 0.00086 µM, 0.0075 µM and 0.0027 µM.
For `COc1ccc(/C=C/c2ccc(OC)c(OC)c2)cc1` [16h, (E)-(4-Methoxyphenyl)-2-(3,4-dimethoxyphenyl)ethene], in that order: 11.7 µM, > 25 µM, > 25 µM, > 25 µM and > 25 µM.
For `COc1ccc(CNc2cc(OC)cc(OC)c2)cc1` [12e], the IC50 (in the test on A-549 lung carcinoma (setting [2]); with MCF-7 breast carcinoma (setting [3]); in the test with SKMEL-5 melanoma; in the test on MLM melanoma (setting [4]); in test [1] (setting [5])) was > 25 µM in each case.
In the case of `COc1ccc(C(=O)Nc2cc(OC)c(OC)c(OC)c2)cc1OC` [11b], the IC50 (in the test with A-549 lung carcinoma (setting [2]); with MCF-7 breast carcinoma (setting [3]); in the test with SKMEL-5 melanoma; in the test with MLM melanoma (setting [4]); in test [1] (setting [5])) was > 25 µM each time.
In the case of `COc1cc(/C=C/c2ccc(OC(C)=O)cc2)cc(OC)c1OC` [6p, (E)-1-(4-Acetoxyphenyl)-2-(3,4,5-trimethoxyphenyl)ethene], the IC50 in the test with A-549 lung carcinoma (setting [2]) was found to be 9.7 µM; in the test with MCF-7 breast carcinoma (setting [3]), 9.6 µM; with SKMEL-5 melanoma it was 4.6 µM; in the test with MLM melanoma (setting [4]), 13 µM; in test [1] (setting [5]), 5.4 µM.
Take `COc1cc(/C=C/c2cc(OC)c(OC)c(OC)c2)cc(OC)c1OC` [6u]: the IC50 (in the test on A-549 lung carcinoma (setting [2]); with MCF-7 breast carcinoma (setting [3]); in the test with SKMEL-5 melanoma; with MLM melanoma (setting [4]); in test [1] (setting [5])) was > 25 µM throughout.
Consider `COc1cc(CCc2ccc(O)cc2)cc(OC)c1OC` [8o, 1-(4-hydroxyphenyl)-2-(3,4,5-trimethoxyphenyl)ethane], for which the IC50 (with A-549 lung carcinoma (setting [2]); with MCF-7 breast carcinoma (setting [3]); with SKMEL-5 melanoma; in the test with MLM melanoma (setting [4]); in test [1] (setting [5])) was > 25 µM in each case.
Consider `COc1ccc(/C=C/c2cc(OC)c(O[Si](C)(C)C(C)(C)C)c(OC)c2)cc1` [16k, (E)-1-[4-{(t-Butyldimethylsilyl)-oxy}-3,5-(dimethoxy)-phenyl]-2-(4-methoxyphenyl)ethene], for which the IC50 (with A-549 lung carcinoma (setting [2]); with MCF-7 breast carcinoma (setting [3]); in the test with SKMEL-5 melanoma; in the test on MLM melanoma (setting [4]); in test [1] (setting [5])) was > 25 µM in each case.
With `COc1cc(/C=C/c2cc(OC)c(OC)c(OC)c2)cc(OC)c1` [6s], the IC50 (with A-549 lung carcinoma (setting [2]); with MCF-7 breast carcinoma (setting [3]); in the test with SKMEL-5 melanoma; in the test on MLM melanoma (setting [4]); in test [1] (setting [5])) was > 25 µM each time.
With `COc1cc(/C=C/c2ccc(O[Si](C)(C)C(C)(C)C)cc2)cc(OC)c1OC` [6m, (E)-1-[(4-t-Butyldimethylsilyloxy)phenyl]-2-(3,4,5-trimethoxyphenyl)ethene], the IC50 (with A-549 lung carcinoma (setting [2]); with MCF-7 breast carcinoma (setting [3]); with SKMEL-5 melanoma; in the test with MLM melanoma (setting [4]); in test [1] (setting [5])) was > 25 µM in each case.
Turning to `COc1cc(CCc2ccc(NC(C)=O)cc2)cc(OC)c1OC` [compound 8m, 1-(4-Acetamidophenyl)-2-(3,4,5-trimethoxyphenyl)ethane], the IC50 (with A-549 lung carcinoma (setting [2]); in the test on MCF-7 breast carcinoma (setting [3]); in the test on SKMEL-5 melanoma; with MLM melanoma (setting [4]); in test [1] (setting [5])) was > 25 µM throughout.
`COc1cc(/C=C/c2ccc(C(C)(C)C)cc2)cc(OC)c1OC` [16g, (E)-1-(4-t-Butylphenyl)-2-(3,4,5-trimethoxyphenyl)ethene]: the IC50 (with A-549 lung carcinoma (setting [2]); with MCF-7 breast carcinoma (setting [3]); with SKMEL-5 melanoma; in the test on MLM melanoma (setting [4]); in test [1] (setting [5])) was > 25 µM in each case.
On to `COc1cccc2c1C(=O)c1c(O)c3c(c(O)c1C2=O)C[C@@](O)(C(=O)CO)C[C@@H]3O[C@H]1C[C@H](N)[C@H](O)[C@H](C)O1` [Adriamycin, reference compound], for which the IC50 came to 0.029 µM in the test with A-549 lung carcinoma (setting [2]); 0.031 µM with MCF-7 breast carcinoma (setting [3]); 0.032 µM in the test on SKMEL-5 melanoma; 0.13 µM in the test on MLM melanoma (setting [4]); 0.055 µM in test [1] (setting [5]).
For `COc1cc(OC)c(OC)cc1/C=C/c1ccccc1` [6w], in that order: > 25 µM, 8.5 µM, > 25 µM, > 25 µM and > 25 µM.
For `COc1cc(/C=C/c2ccc(O)cc2)cc(OC)c1OC` [compound 6o, (E)-1-(4-Hydroxyphenyl)-2-(3,4,5-trimethoxyphenyl)ethene], in that order: > 25 µM, 18.6 µM, 11.6 µM, 24.2 µM and > 25 µM.
`CCCOc1ccc(/C=C/c2cc(OC)c(OC)c(OC)c2)cc1` [16b, (E)-1-(4-n-Propoxyphenyl)-2-(3,4,5-trimethoxyphenyl)ethene]: the IC50 with A-549 lung carcinoma (setting [2]) was 9.2 µM; in the test with MCF-7 breast carcinoma (setting [3]), 12.5 µM; with SKMEL-5 melanoma it was > 25 µM; in the test on MLM melanoma (setting [4]) it was > 25 µM; in test [1] (setting [5]), > 25 µM.
For `COc1ccc(/C=C/c2cc(OC)c(OC)c(OC)c2)c(Cl)c1` [6e], the IC50 in the test with A-549 lung carcinoma (read-out: Cytotoxicity ED50, A-549, A-549, MTT, six days) is > 25 µM; in the test on MCF-7 breast carcinoma (read-out: Cytotoxicity ED50, MCF-7, MCF-7, MTT, six days), > 25 µM; in the test with SKMEL-5 melanoma, > 25 µM; in the test with MLM melanoma (read-out: Cytotoxicity ED50, MLM, MLM, MTT, six days), > 25 µM; in test [1] (read-out: Cytotoxicity ED50, HT-29, HT-29, MTT, six days), > 25 µM.
Regarding `CCc1ccc(/C=C/c2cc(OC)c(OC)c(OC)c2)cc1` [16e, (E)-(4-Ethylphenyl)-2-(3,4,5-trimethoxyphenyl)ethene], the IC50 in the test on A-549 lung carcinoma (setting [2]) stood at 0.13 µM; in the test on MCF-7 breast carcinoma (setting [3]), 1.2 µM; in the test with SKMEL-5 melanoma, 0.17 µM; with MLM melanoma (setting [4]) it was 0.22 µM; in test [1] (setting [5]), 0.11 µM.
For `COc1cc(/C=C/c2ccc(N)cc2)cc(OC)c1OC` [6z, (E)-1-(4-Aminophenyl)-2-(3,4,5-trimethoxyphenyl)ethene], in that order: > 25 µM, > 25 µM, > 25 µM, > 25 µM and > 25 µM.
As for `COc1ccc(/C=C\c2cc(OC)c(OC)c(OC)c2)cc1` [compound E, reference compound], the IC50 with tubulin (Table X footnote b, different glutamate preparation, read-out: tubulin polymerization IC50, standard agents) was determined as 1.2 ± 0.05 µM.
Take `COc1cc(/C=C\c2ccc(C)cc2)cc(OC)c1OC` [15d, (Z)-(4-Methylphenyl)-2-(3,4,5-trimethoxyphenyl)ethene]: the IC50 in the test on A-549 lung carcinoma (setting [2]) worked out at 0.00094 µM; with MCF-7 breast carcinoma (setting [3]) it was 0.024 µM; in the test on SKMEL-5 melanoma, 0.00083 µM; in the test on MLM melanoma (setting [4]), 0.0066 µM; in test [1] (setting [5]), 0.0023 µM.
For `COc1cc(/C=C/c2ccc(OC)c(OC)c2)cc(OC)c1` [6y], in that order: > 25 µM, > 25 µM, > 25 µM, > 25 µM and > 25 µM.
For `COc1ccccc1/C=C/c1cc(OC)c(OC)c(OC)c1` [6c], in that order: 12.2 µM, 18 µM, 13.5 µM, > 25 µM and 12.1 µM.
The like results for `COc1cc(OC)c(OC)cc1/C=C/c1cc(OC)c(OC)c(OC)c1` [6v] were, in that order, > 25 µM, > 25 µM, > 25 µM, > 25 µM and > 25 µM.
Consider `CCCc1ccc(NCc2cc(OC)c(OC)c(OC)c2)cc1` [110g, 4-n-Propyl-N-(3,4,5-trimethoxybenzyl)aniline Hydrochloride], for which the IC50 with tubulin (Table X, different glutamate preparation (1M monosodium glutamate and GTP), read-out: inhibn of tubulin polymn IC50 (±SD)) is > 40 µM.
As for `COc1cc(OC)c(OC)cc1CCc1cc(OC)c(OC)c(OC)c1` [8v], the IC50 (in the test with A-549 lung carcinoma (setting [2]); in the test with MCF-7 breast carcinoma (setting [3]); in the test on SKMEL-5 melanoma; with MLM melanoma (setting [4]); in test [1] (setting [5])) was > 25 µM in each case.
`COc1ccc(/C=C/c2cc(OC)c(OC(C)=O)c(OC)c2)cc1` [16l, (E)-1-(4-Acetoxy-3,5-dimethoxyphenyl)-2-(4-methoxy-phenyl)ethene]: the IC50 in the test on A-549 lung carcinoma (setting [2]) came out at 16.4 µM; with MCF-7 breast carcinoma (setting [3]) it was 19.4 µM; in the test with SKMEL-5 melanoma, 10.2 µM; in the test on MLM melanoma (setting [4]), 21 µM; in test [1] (setting [5]), 11.7 µM.
